Marks after values point to notes of the source that are not given here.
Experiments:
[1] = target: c-Kit (Homo sapiens (Human), UniProt P10721); test: Inhibition of c-Kit kinase activity (HTRF KinEASE-TK); type: biochemical; conditions: biochemical
Summary of the method: (§1)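 Recombinant kinases (2 nM CSF1R and c-Kit, 10 nM PDGFRα/β, 2× working) preincubated 1 h with compound in 50 mM HEPES pH 7.4, 5 mM MgCl2 (c-Kit) or 10 mM (others), 2 mM MnCl2; 2× ATP: c-Kit 16 μM, PDGFRα 1 μM, PDGFRβ 40 μM, CSF1R 20 μM. 120 min reaction at rt; TR-FRET 665/620 nm; IC50 by 4-parameter fit.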

[2] = target: PDGFRα (Homo sapiens (Human), UniProt P16234); test: Inhibition of PDGFRα kinase activity (HTRF KinEASE-TK); conditions: biochemical
Summary of the method: as §1

[3] = target: PDGFRβ (Homo sapiens (Human), UniProt P09619); test: Inhibition of PDGFRβ kinase activity (HTRF KinEASE-TK); conditions: biochemical
Summary of the method: as §1

[4] = target: CSF1R (Homo sapiens (Human), UniProt P07333); test: Inhibition of CSF1R kinase activity (HTRF KinEASE-TK); conditions: biochemical
Summary of the method: as §1

[5] = test system: Sprague Dawley rat hepatocytes; test: Bioactivation assessment in rat hepatocytes; type: in vitro ADME; conditions: 5 μM, 4 hours
Experimental: Bioactivation Assessment Procedure
Pooled male Sprague Dawley rat (BioIVT), male beagle dog (BioIVT), male cynomolgus monkey (BioIVT), and a 50-donor pool of cryopreserved human hepatocytes (BioIVT) was thawed in pre-warmed 37° C. InVitroGro™ HT media (BioIVT), centrifuged, and resuspended in the InVitroGro™ HI media (BioIVT). The number of viable cells was determined by the Trypan blue exclusion method. The cells were diluted to a concentration of two million viable cells per milliliter (viability >80%) and seeded into round-bottom 96-well plates. The test articles were dissolved in DMSO and further diluted in 50% CH3CN and InVitroGro™ HI media with final concentrations of 0.05% DMSO and 0.5% CH3CN in the incubation mixture. Incubation was performed at a final concentration of one million cells per milliliter and 5 μM test compounds with continuous shaking at 1100 rpm in a 37° C., 5/95% CO2/air incubator with 100% relative humidity. After 4 hours, the samples were quenched by addition of 3 volumes of CH3CN, vortexed for 15 minutes, and centrifuged at 4200 rpm for 15 minutes at 10° C. (Sorvall Legend XTR centrifuge, Thermo Scientific, Langenselbold, Germany). 80 μL of the resulting supernatant was transferred into a new plate and mixed with 160 μL water followed by liquid chromatography-high resolution mass spectrometry (LC-HRMS) analysis.
Structural assignments of metabolites were determined through mass spectral analysis. The level of bioactivation was estimated based on the relative peak area of bioactivation products to all identified metabolites. The following equation was used: […]
Bioactivation products included glutathione conjugates, imine methides, quinones, diols, and other relevant metabolites.

Chain of PDGFRβ (P09619 33-1106): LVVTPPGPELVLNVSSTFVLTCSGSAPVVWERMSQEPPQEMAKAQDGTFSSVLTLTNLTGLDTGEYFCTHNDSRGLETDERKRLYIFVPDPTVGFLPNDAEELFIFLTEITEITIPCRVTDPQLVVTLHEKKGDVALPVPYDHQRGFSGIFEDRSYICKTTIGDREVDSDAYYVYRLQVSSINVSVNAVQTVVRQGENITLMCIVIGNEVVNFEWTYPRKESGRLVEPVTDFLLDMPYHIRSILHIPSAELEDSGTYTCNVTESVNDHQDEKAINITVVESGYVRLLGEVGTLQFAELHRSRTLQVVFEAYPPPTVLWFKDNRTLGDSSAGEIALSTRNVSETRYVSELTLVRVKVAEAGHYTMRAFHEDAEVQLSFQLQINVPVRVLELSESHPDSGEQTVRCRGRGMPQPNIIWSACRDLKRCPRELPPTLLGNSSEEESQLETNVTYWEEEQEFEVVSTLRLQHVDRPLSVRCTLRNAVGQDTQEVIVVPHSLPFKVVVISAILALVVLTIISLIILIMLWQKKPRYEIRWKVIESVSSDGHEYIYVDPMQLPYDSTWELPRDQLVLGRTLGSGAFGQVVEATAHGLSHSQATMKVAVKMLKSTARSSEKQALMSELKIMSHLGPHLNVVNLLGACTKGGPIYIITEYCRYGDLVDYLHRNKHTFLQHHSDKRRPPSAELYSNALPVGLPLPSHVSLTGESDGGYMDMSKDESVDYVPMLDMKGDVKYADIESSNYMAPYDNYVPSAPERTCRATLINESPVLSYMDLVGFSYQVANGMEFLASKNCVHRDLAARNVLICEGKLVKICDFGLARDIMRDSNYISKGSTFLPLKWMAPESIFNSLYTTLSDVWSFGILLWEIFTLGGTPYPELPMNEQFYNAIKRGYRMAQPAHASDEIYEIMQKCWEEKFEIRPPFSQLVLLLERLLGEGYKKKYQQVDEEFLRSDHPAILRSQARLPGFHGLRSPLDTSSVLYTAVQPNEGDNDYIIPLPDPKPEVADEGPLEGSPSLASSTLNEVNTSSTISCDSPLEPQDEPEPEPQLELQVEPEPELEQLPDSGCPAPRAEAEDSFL
Chain of PDGFRα (P16234 24-1089): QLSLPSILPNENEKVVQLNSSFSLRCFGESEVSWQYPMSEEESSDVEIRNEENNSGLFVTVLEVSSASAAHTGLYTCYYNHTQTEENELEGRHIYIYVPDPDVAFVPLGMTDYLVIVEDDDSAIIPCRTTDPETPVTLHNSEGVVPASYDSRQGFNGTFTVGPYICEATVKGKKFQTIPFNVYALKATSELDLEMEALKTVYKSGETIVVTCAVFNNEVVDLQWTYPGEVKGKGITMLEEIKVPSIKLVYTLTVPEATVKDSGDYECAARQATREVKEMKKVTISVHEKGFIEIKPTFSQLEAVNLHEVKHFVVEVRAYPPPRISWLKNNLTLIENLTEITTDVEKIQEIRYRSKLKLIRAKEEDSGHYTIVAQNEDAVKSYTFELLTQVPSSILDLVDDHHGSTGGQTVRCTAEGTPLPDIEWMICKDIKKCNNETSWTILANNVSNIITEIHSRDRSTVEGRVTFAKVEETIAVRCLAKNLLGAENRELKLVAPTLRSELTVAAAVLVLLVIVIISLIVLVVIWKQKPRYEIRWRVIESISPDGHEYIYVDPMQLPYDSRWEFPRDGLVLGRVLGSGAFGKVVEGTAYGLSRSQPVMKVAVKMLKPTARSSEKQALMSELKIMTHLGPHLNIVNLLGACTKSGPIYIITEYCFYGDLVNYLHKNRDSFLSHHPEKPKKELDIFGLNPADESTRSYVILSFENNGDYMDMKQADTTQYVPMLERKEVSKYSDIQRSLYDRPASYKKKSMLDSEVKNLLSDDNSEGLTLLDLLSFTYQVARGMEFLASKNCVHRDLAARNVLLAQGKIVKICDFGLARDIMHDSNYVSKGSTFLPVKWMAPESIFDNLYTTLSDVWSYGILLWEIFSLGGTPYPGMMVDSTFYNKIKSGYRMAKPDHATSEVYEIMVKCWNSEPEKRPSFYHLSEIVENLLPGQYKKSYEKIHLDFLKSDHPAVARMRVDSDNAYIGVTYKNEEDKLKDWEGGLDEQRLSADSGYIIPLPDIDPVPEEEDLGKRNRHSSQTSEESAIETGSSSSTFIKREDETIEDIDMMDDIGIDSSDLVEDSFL
Chain of c-Kit (P10721 26-976): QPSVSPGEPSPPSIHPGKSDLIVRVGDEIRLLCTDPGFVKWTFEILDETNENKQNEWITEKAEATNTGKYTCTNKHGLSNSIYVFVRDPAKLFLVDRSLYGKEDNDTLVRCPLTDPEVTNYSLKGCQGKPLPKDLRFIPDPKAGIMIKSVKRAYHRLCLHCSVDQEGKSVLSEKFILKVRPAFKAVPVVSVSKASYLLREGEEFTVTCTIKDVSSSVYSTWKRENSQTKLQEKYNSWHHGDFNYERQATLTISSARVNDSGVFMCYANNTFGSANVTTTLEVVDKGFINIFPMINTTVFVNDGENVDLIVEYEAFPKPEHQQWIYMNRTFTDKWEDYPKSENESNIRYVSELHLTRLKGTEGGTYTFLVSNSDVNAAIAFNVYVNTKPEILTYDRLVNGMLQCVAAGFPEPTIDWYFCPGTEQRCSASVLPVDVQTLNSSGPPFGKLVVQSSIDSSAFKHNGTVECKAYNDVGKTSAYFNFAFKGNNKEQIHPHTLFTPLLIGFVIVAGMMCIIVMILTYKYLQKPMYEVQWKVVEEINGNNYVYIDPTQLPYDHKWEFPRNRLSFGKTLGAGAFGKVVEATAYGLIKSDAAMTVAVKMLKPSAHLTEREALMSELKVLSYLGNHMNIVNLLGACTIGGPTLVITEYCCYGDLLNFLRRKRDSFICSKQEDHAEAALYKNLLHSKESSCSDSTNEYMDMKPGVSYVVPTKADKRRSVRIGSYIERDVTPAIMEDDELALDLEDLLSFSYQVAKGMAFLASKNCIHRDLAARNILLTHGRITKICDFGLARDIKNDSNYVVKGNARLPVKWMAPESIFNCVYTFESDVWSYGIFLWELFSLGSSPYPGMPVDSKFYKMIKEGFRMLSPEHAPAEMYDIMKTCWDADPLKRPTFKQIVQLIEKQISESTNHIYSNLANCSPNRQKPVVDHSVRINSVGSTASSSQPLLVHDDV
Chain of CSF1R (P07333 20-972): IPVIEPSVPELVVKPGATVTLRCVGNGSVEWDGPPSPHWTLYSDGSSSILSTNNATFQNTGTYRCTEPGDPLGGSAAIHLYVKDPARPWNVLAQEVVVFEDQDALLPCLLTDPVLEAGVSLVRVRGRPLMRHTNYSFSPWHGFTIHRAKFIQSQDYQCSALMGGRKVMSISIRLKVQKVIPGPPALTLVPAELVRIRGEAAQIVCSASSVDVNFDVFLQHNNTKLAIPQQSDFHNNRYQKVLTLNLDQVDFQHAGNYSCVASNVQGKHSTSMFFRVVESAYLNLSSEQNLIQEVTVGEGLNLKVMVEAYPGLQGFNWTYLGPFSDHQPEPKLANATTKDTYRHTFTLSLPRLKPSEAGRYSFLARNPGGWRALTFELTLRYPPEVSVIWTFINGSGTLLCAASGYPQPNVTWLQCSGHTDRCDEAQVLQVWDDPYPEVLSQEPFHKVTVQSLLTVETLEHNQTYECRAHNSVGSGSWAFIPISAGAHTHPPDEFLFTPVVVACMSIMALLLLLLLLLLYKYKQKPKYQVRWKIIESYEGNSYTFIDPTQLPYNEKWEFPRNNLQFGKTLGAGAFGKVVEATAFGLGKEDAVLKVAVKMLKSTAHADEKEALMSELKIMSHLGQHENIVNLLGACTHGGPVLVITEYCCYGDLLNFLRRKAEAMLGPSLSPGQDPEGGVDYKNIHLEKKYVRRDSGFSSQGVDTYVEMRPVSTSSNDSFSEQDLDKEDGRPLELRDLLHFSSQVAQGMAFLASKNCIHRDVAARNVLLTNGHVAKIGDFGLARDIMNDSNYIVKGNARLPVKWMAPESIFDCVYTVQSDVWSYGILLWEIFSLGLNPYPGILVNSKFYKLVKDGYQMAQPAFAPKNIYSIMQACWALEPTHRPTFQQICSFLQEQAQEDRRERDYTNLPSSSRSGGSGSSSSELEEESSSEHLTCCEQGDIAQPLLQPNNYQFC

Cc1ncc(C(=O)Nc2cc(C(=O)Nc3ccc(CC(F)(F)F)cn3)c(F)cc2C)s1 [Example 1, N-[4-Fluoro-2-methyl-5-[[5-(2,2,2-trifluoroethyl)pyridin-2-yl]carbamoyl]phenyl]-2-methyl-1,3-thiazole-5-carboxamide]
IC50 [1]: < 100 nM
IC50 [2]: > 1000 nM
IC50 [3]: > 1000 nM
IC50 [4]: > 1000 nM
Percent of total metabolism via bioactivation, Rat hepatocytes [5]: 3-7%^b

Cc1ncc(C(=O)Nc2cc(C(=O)Nc3ccc(C4CC4)cn3)c(F)cc2C)s1 [Example 3, N-[5-[(5-Cyclopropylpyridin-2-yl)carbamoyl]-4-fluoro-2-methylphenyl]-2-methyl-1,3-thiazole-5-carboxamide]
IC50 [1]: < 100 nM
IC50 [2]: > 1000 nM
IC50 [3]: > 1000 nM
IC50 [4]: > 1000 nM
Percent of total metabolism via bioactivation, Rat hepatocytes [5]: <0.1%

Cc1ncc(C(=O)Nc2cc(C(=O)Nc3cnc(OCC(C)(F)F)cn3)c(F)cc2C)s1 [Example 4, N-[5-[[5-(2,2-Difluoropropoxy)pyrazin-2-yl]carbamoyl]-4-fluoro-2-methylphenyl]-2-methyl-1,3-thiazole-5-carboxamide]
IC50 [1]: < 100 nM
IC50 [2]: > 1000 nM
IC50 [3]: > 1000 nM
IC50 [4]: > 1000 nM
Percent of total metabolism via bioactivation, Rat hepatocytes [5]: <1%^a

Cc1ncc(C(=O)Nc2cc(C(=O)Nc3ccc(CC4CC4)cn3)c(F)cc2C)s1 [Example 5, N-[5-[[5-(Cyclopropylmethyl)pyridin-2-yl]carbamoyl]-4-fluoro-2-methylphenyl]-2-methyl-1,3-thiazole-5-carboxamide]
IC50 [1]: < 100 nM
IC50 [2]: > 1000 nM
IC50 [3]: > 1000 nM
IC50 [4]: > 1000 nM
Percent of total metabolism via bioactivation, Rat hepatocytes [5]: <1%

Cc1ncc(C(=O)Nc2cc(C(=O)Nc3ccc(OC(F)F)cn3)c(F)cc2C)s1 [Example 38, N-[5-[[5-(difluoromethoxy)pyridin-2-yl]carbamoyl]-4-fluoro-2-methylphenyl]-2-methyl-1,3-thiazole-5-carboxamide]
IC50 ([1]; HTRF KinEASE-TK): < 100 nM
IC50 ([2]; HTRF KinEASE-TK): > 1000 nM
IC50 ([3]; HTRF KinEASE-TK): > 1000 nM
IC50 ([4]; HTRF KinEASE-TK): > 1000 nM
Percent of total metabolism via bioactivation, Rat hepatocytes [5]: 2%

Cc1ncc(C(=O)Nc2cc(C(=O)Nc3ccc(OC4CC4)cn3)c(F)cc2C)s1 [Example 2, N-[5-[(5-Cyclopropyloxypyridin-2-yl)carbamoyl]-4-fluoro-2-methylphenyl]-2-methyl-1,3-thiazole-5-carboxamide]
IC50 [1]: < 100 nM
IC50 [2]: > 1000 nM
IC50 [3]: > 1000 nM
IC50 [4]: > 1000 nM
Percent of total metabolism via bioactivation, Rat hepatocytes [5]: 1-2%ª

Cc1ncc(C(=O)Nc2cc(C(=O)Nc3ccc(CC(F)(F)F)cn3)c(F)cc2Cl)s1 [Example 46, N-[2-chloro-4-fluoro-5-[[5-(2,2,2-trifluoroethyl)pyridin-2-yl]carbamoyl]phenyl]-2-methyl-1,3-thiazole-5-carboxamide]
IC50 ([1]; HTRF KinEASE-TK): < 100 nM
IC50 ([2]; HTRF KinEASE-TK): > 1000 nM
IC50 ([3]; HTRF KinEASE-TK): > 1000 nM
IC50 ([4]; HTRF KinEASE-TK): > 1000 nM
Percent of total metabolism via bioactivation, Rat hepatocytes [5]: 80%

Reference: patent US20250145606A1 (Arcus Biosciences, Inc., priority 2023, published 2025)
